Assay results reported in patent US20260021106A1, “COMBINATION THERAPY FOR TREATING CANCERS” (GEISTLICH PHARMA AG, priority 2022, published 2026).
“Also recorded” adds a separate entry of the source.

Key:
[1] = tested on: AKT; experiment: In vivo pharmacodynamic experiment, OVCAR8 mouse model, AKT; conditions: dose of 500 mg/kg
Experimental: (§1) In vivo model of ovarian cancer: Pharmacodynamic study and therapeutic experiment using OVCAR8 ovarian cancer model were performed. FIGS. 8A-8B show the cytotoxic effect of GP-2250 on ovarian cancer cells.
(§2) FIGS. 11A-11B show pharmacodynamics studies of GP-2250.

[2] = tested on: VEGF; experiment: VEGF secretion in cancer cells; format: cell-based; conditions: compared to vehicle
Description: (§3) GP-2250 inhibits mTOR, AKT and HIF-1α expression.

[3] = tested on: cancer cells; experiment: Glycolysis and ATP synthesis in cancer cells; format: cell-based
Description: (§4) (ns, not significant, **P<0.01; **P<0.001 (vs. control; Student t-test)).

[4] = tested on: ovarian cancer cells; experiment: Cell viability assay / cytotoxic effect in ovarian cancer cell lines; format: cell-based, human
Experimental: (§5) Human Ovarian cancer cell lines: A2780, Coav3, HeyA8, HeyA8-MDR, Kuramochi, OVCAR3, OVCAR5, OVCAR8, and SKOV3 were obtained and used in studies.
(§6) In vitro assays: Cell viability assay, Western blotting, Colony formation assay, Reverse-phase protein array, and Ultra-high resolution mass spectrometry analysis were performed.
as §1

[5] = tested on: hypoxia-inducible factor-la; experiment: Reverse Phase Protein Array (RPPA), HIF-1α; format: cell-based, human
Experimental: as §6

[6] = tested on: AKT; experiment: Reverse Phase Protein Array (RPPA), AKT; format: cell-based, human
Experimental: as §6

[7] = tested on: OVCAR8-L; experiment: In vivo therapy experiment, orthotopic OVCAR8-L ovarian cancer mouse model; set-up: species or system mice; conditions: GP-2250 500 mg/kg 3 times per week, bevacizumab 6.25 mg/kg, take down day 49
Experimental: FIG. 5 schematically illustrates the experimental design for in vivo testing of the GP-2250 and bevacizumab on OVCAR8-L mice. The experiment includes testing: 1) IgG control (10 mice, 6.25 mg/kg, BW); 2) GP-2250 (10 mice, 500 mg/kg. 3 times per week); 3) Bevacizumab (10 mice, 6.25 mg/kg, BW) (“BEV”); and 4) the combination of GP-2250 and Bevacizumab.
Tumorigenicity of OVCAR8-L was determined using IVIS imaging. IVIS imaging following OCVAR8-L injection. 1×10^6 cells were injected through i.p., and then tumorigenicity was measured. All mice were injected with high-grade ovarian cancer cells (OVCAR8) labeled with luciferase gene by i.p. route. All mice survived until the end of the study. No mice were euthanized due to the effect of tumor. Five weeks after treatment, all mice were euthanized, body weight was measured, and no significant body weight change in each group.
as §1

[8] = tested on: hexokinase 2; experiment: Hexokinase activity and expression (ultra-high resolution mass spectrometry, FIG. 10); format: cell-based, human
Experimental: as §6, §4

[9] = tested on: mTOR; experiment: In vivo pharmacodynamic experiment, OVCAR8 mouse model, mTOR; conditions: dose of 500 mg/kg
Experimental: as §1, §2

[10] = tested on: HIF1α; experiment: Western blotting of ovarian cancer cells, HIF1α; format: cell-based, human; conditions: treated 24 hours, Western blot
Experimental: as §3, §5, §6

[11] = tested on: mTOR; experiment: Reverse Phase Protein Array (RPPA), mTOR; format: cell-based, human
Experimental: as §6

[12] = tested on: mTOR; experiment: Western blotting of ovarian cancer cells, mTOR; format: cell-based, human; conditions: treated 24 hours, Western blot
Experimental: as §3, §5, §6

[13] = tested on: AKT; experiment: Western blotting of ovarian cancer cells, AKT; format: cell-based, human; conditions: treated 24 hours, Western blot
Experimental: as §3, §5, §6

[14] = tested on: human endothelial cell (hEC) spheroids; experiment: Spheroid assay, VEGF-induced endothelial sprouting; format: cell-based
Experimental: A spheriod assay was performed including growing human endothelial cell (hEC) spheroids and adding VEGF (1000 cells/spheroid; 200 sph/condition) for 24 hours using a hanging drog procedure with methyl-cellulose, then harvesting, adding GP-2250, and suspending in fibrinogen/thrombin matrix. The suspension was then transferred to a 24 well plate and incubated for 24 hours at 37° C. FIG. 1: VEGF-induced Endothelial Sprouting: Impact of GP-2250, Spheroid assay. […] Tip cells form sprouts, and stalk cells form capillary lumen as shown in the image (bottom).
FIG. 4 quantifies the effects of PBS control, Delta-like 4 (DLL4), and GP-2250 (at 2.5 μg/ml or at 10 μg/ml) on VEGF-induced endothelial cell sprouting.

[15] = 2.5 μg/ml or 10 μg/ml, compared to control

O=S1(=O)CCOCN1 [GP-2250]
downregulating AKT activation and expression [1]: most effective
VEGF secretion in cancer cells [2]: significantly reduced VEGF secretion
ATP synthesis in cancer cells [3]: reduced
glycolysis in cancer cells [3]: decreases glycolysis; also recorded: reduced glycolysis
apoptosis in ovarian cancer cells [4]: increased apoptosis
proliferation in ovarian cancer cells [4]: reduced proliferation
cancer cell viability ([4]; FIG. 10D, with siRNA targeting hexokinase 1 and hexokinase 2): reduces cancer cell viability
cytotoxic effect, vulnerability of HRD versus HRP ovarian cancer cells ([4]; HRD (Kuramochi, OVCAR4, OVCAR8) vs HRP (A2780, OVCAR5), 10 ovarian cancer cell lines): more vulnerable to GP-2250 than Homologous Recombination Proficiency (HRP) ovarian cancer cells
hypoxia-inducible factor-la activation and expression level [5]: inhibited
AKT activation and expression level [6]: inhibited
nodules (tumor nodule number) [7]: 2.9±0.48
tumor weight [7]: 2.9 ± 0.48 g
hexokinase activity and protein expression levels ([8]; FIG. 10C): inhibits hexokinase activity and protein expression levels
hexokinase 2 activity and expression ([8]; ultra-high resolution mass spectrometry (HRMS) analysis): significantly reduced
downregulating mTOR activation and expression [9]: most effective
HIF1α expression in cancer cells [10]: reduced HIF1α expression
mTOR activation and expression level [11]: inhibited
mTOR expression [12]: inhibits
AKT expression [13]: inhibits
number of sprouts per spheroid [14, 15]: statistically significant reductions
total sprout length [14, 15]: statistically significant reductions
VEGF-induced endothelial cell sprouting ([14]; GP-2250 10 μg/ml, 24 hours): inhibits VEGF-induced endothelial cell sprouting

bevacizumab: recombinant humanized monoclonal IgG1 antibody that specifically binds to and blocks the biological effects of VEGF [reference compound]
nodules (tumor nodule number) [7]: 3.8±0.71
tumor weight [7]: 0.43 ± 0.08 g
